Laboratory results published in patent publication US20080044358A1, “METHODS FOR LYMPH SYSTEM IMAGING” (priority 2006, published 2008).
Where two headings read alike, the source gives them in different places.

Legend:
[1] = tested on: VX2 tumor bearing rabbits, metastatic iliacal lymph nodes; assay: MR imaging of lymph node metastases in VX2 tumor rabbit model after intravenous injection; type: in vivo, New Zealand White rabbits; conditions: for delineation / differentiation of functional and metastatic lymph node tissue: i.v., MS-325 0.05 mmol Gd/kg, Gd-DTPA 0.2 mmol Gd/kg, intraindividual comparison
Description: New Zealand White rabbits (3-4 kg, n=6) were inoculated intramuscularly into the thigh with 2 to 3 pieces (1×1 mm) of VX2 carcinoma cells to produce metastases in […] nodes. The imaging experiments were performed 3 to 6 weeks after the injection of tumor cells. […] Contrast agents: […] Imaging: Intraindividual comparison of lymphographic effects in […] nodes. day 1: Gd-DTPA (5 to 120 minutes p.i.). day 2: […] Assessment of technical success and quality of MR imaging, and detection of lymph node metastases. Histology: Microscopic examination after H/E staining; correlation with MR findings.

[2] = tested on: guinea pigs with stimulated (enlarged) popliteal lymph nodes; conditions: for ratio of signal intensity lymph node to muscle / % signal enhancement popliteal lymph node: 0.05 mmol/kg i.v. bolus; for % signal enhancement popliteal lymph node: T1-weighted MR 1.5 T
Description: Female guinea pigs (370-450 g, n=3) had their lymph nodes stimulated by egg yolk emulsion (0.1 mL) intramuscularly in the thigh and lower legs on six days. MS-325 (0.05 mmol/kg) was administered as an i.v. bolus
MR system: Head scanner (Allegra, 1.5 Tesla; Siemens AG, Erlangen, Germany), T1-weighted sequence (T1-TSE, TR/TE 666/12 ms, slice thickness 1.1 mm, acquisition time 3:49).
Imaging and analysis: The animals were imaged prior to contrast agent administration and 1, 15, 30, 60, 90, 120, and […] post injection. The percent signal intensity enhancement was calculated in the popliteal lymph nodes and in surrounding muscle. The ratio of signal intensity between the lymph node and the surrounding muscle was also determined.

[3] = 0 min post injection (prior to contrast agent)
[4] = 5 to 15 min after intravenous injection, 0.05 mmol Gd/kg body weight

O=C([O-])CN(CCN(CC(=O)[O-])CC(=O)O)CCN(CC(=O)[O-])CC(=O)O.[Gd+3] [Gd-DTPA, reference compound]
enhancement in the whole lymph node ([1]; after intravenous injection, 0.2 mmol Gd/kg, T1-weighted MR): only a slight and inhomogeneous enhancement | delineation / differentiation of functional and metastatic lymph node tissue [1]: does not allow an effective differentiation

O=C([O-])CN(CCN(CC(=O)[O-])C[C@H](COP(=O)([O-])OC1CCC(c2ccccc2)(c2ccccc2)CC1)N(CC(=O)[O-])CC(=O)[O-])CC(=O)[O-].[Gd+3].[H+].[H+].[H+] [MS-325]
ratio of signal intensity lymph node to muscle [2, 3]: 1.2 ± 0.1 | % signal enhancement popliteal lymph node [2, 3]: 0 ± 0% | ratio of signal intensity lymph node to muscle ([2]; 1 min post injection): 1.6 ± 0.1 | % signal enhancement popliteal lymph node ([2]; 1 min post injection): 87 ± 11% | ratio of signal intensity lymph node to muscle ([2]; 15 min post injection): 1.4 ± 0.1 | % signal enhancement popliteal lymph node ([2]; 15 min post injection): 67 ± 11% | ratio of signal intensity lymph node to muscle ([2]; 30 min post injection): 1.4 ± 0.1 | % signal enhancement popliteal lymph node ([2]; 30 min post injection): 57 ± 6% | ratio of signal intensity lymph node to muscle ([2]; 60 min post injection): 1.3 ± 0.1 | % signal enhancement popliteal lymph node ([2]; 60 min post injection): 45 ± 6% | ratio of signal intensity lymph node to muscle ([2]; 90 min post injection): 1.3 ± 0.1 | % signal enhancement popliteal lymph node ([2]; 90 min post injection): 37 ± 4% | ratio of signal intensity lymph node to muscle ([2]; 120 min post injection): 1.3 ± 0.1 | % signal enhancement popliteal lymph node ([2]; 120 min post injection): 31 ± 6% | ratio of signal intensity lymph node to muscle ([2]; 2440 min post injection): 1.1 ± 0.2 | % signal enhancement popliteal lymph node ([2]; 2440 min post injection): −8 ± 14% | signal and contrast after 24 hours ([2]; after 24 hours, 0.05 mmol/kg): returned to baseline levels | contrast between the lymph node and the surrounding muscle ([2]; after injection, 0.05 mmol/kg): increased | enhancement of stimulated (enlarged) lymph nodes ([2]; after injection, 0.05 mmol/kg): positive and persistent enhancement | appearance of the metastases (FIGS. 1 and 2, coronal MR images) [1, 4]: remains dark | enhancement in the functional lymph node tissue (FIGS. 1 and 2, coronal MR images) [1, 4]: bright and homogeneous enhancement | enhancement of the metastatic tissue ([1]; after intravenous injection, 0.05 mmol Gd/kg, T1-weighted MR): only a slight enhancement | signal increase in the functional lymph node tissue ([1]; between 5 and 30 min after intravenous injection, 0.05 mmol Gd/kg, T1-weighted MR): rapid and strong signal increase | delineation / differentiation of functional and metastatic lymph node tissue [1]: excellent delineation of the lymph node metastases
